{"source": "patent US20030215817A1", "about": "“Modulation of gene expression in formation of fatty atherosclerotic lesions” (priority 2003, published 2003)", "format_in_all_cases": "in vivo, rabbit", "key": {"[1]": {"system": "REC1_1 (MspI AAGC 288) mRNA, TYRO protein tyrosine kinase binding p", "assay": "TOGA analysis, REC1_1", "method": "(§1) To perform the studies, New Zealand male rabbits weighing 2.0-2.5 kg (Charles River, Calco, Italy) were used. The rabbits were divided into three groups and maintained in identical experimental conditions: (1) control group (n=15); rabbits fed a cholesterol-rich diet; (2) lercanidipine-treated group (n=15); rabbits fed a cholesterol-rich diet and also treated with lercanidipine (3 mg/kg/week); and (3) (R)-lercanidipine-treated group (n=5); rabbits fed a cholesterol-rich diet and also treated with the (R)-enantiomer of lercanidipine (3 mg/kg/week). After a 2 week period of subcutaneous, once a week, pretreatment with 3 mg/kg/week of lercanidipine or (R)-lercanidipine, the rabbits received a daily cholesterol supplement for up to 8 weeks or 2 weeks, respectively. In the following examples, use of the term “lercanidipine” refers to the racemic mixture of lercanidipine hydrochloride, whereas “(R)-lercanidipine” refers to the (R)-enantiomer of lercanidipine hydrochloride.\n(§2) The mRNA from the above-described groups was isolated from aorta at different time points, resulting in the following mRNA samples: (1) Day 0 Control=no administered cholesterol, no lercanidipine; (2) Day 0+lercanidipine=no administered cholesterol, treatment with lercanipidine (2 weeks; 3 mg/kg/week); (3) Day 14 Control=cholesterol diet for two weeks, no lercanidipine; (4) Day 14+lercanidipine=cholesterol diet for two weeks, treatment with lercanidipine (four weeks; 3 mg/kg/week); (5) Week 8 Control=cholesterol diet for 8 weeks, no lercanidipine; and (6) Week 8+lercanidipine=cholesterol diet for 8 weeks, treatment with lercanidipine (10 weeks; 3 mg/kg/week). In addition, Day 14+(R)-lercanidipine mRNA samples were prepared from rabbits given a cholesterol diet for two weeks and treated with 3 mg/kg/week (R)-lercanidipine for four weeks.\n(§3) Aorta mRNAs were prepared in the following manner. First, the aortas from each experimental group were retrieved and shredded using a polytron homogenizer. The samples were further homogenized using a teflon pestle, after which the cellular debris, nuclei, and blood cells were pelleted by centrifugation. The supernatants were extracted twice with phenol-chloroform-isoamyl alcohol and once with chloroform-isoamyl alcohol. RNA was then precipitated from the aqueous phase with ethanol. The poly A+ mRNA was prepared using standard methods of polyA selection known in the art (Schriber et al., J. Mol. Biol., 142:93-116 (1980)).\n(§4) The isolated mRNA was analyzed using a method of simultaneous sequence-specific identification of mRNAs known as TOGA, described in U.S. Pat. No. 5,459,037 and U.S. Pat. No. 5,807,680, hereby incorporated herein by reference. In a preferred embodiment, the TOGA method further comprised an additional PCR step performed using a mixture of four 5′ PCR primers and cDNA templates prepared from a population of antisense cRNAs. A final PCR step that used a mixture of 256 5′ PCR primers produced PCR products that were cDNA fragments that corresponded to the 3′-region of the starting mRNA population. The produced PCR products were then identified by: (a) the initial 5′ sequence comprising the sequence remainder of the recognition site of the restriction endonuclease used to cut and isolate the 3′ region plus the sequence of the preferably four parsing bases immediately 3′ to the remainder of the recognition site, preferably the sequence of the entire fragment; and (b) the length of the fragment. These two parameters, sequence and fragment length, were used to compare the obtained PCR products to a database of known polynucleotide sequences. Since the length of the obtained PCR products includes known vector sequences at the 5′ and 3′ ends of the insert, the sequence of the insert provided in the sequence listing is shorter than the fragment length that forms part of the digital address.\n(§5) The method yields Digital Sequence Tags (DSTs), that is, polynucleotides that are expressed sequence tags of the 3′ end of mRNAs. […]"}, "[2]": {"system": "REC1_7 (MspI CACA 282) mRNA", "assay": "TOGA analysis, REC1_7", "method": "as §1, §2, §3, §4, §5"}, "[3]": {"system": "REC1_22 (digital address TGGG 164) mRNA", "assay": "TOGA analysis, REC1_22", "method": "as §1, §2, §3, §4, §5"}, "[4]": {"system": "REC1_24 (digital address CCGG 232) mRNA", "assay": "TOGA analysis, REC1_24", "method": "as §1, §2, §3, §4, §5"}, "[5]": {"system": "REC1_28 (digital address CGGT 101) mRNA, calgizzarin", "assay": "TOGA analysis, REC1_28", "method": "as §1, §2, §3, §4, §5"}, "[6]": {"system": "REC1_31 (digital address TGCA 210) mRNA, mitochondrial genome", "assay": "TOGA analysis, REC1_31", "method": "as §1, §2, §3, §4, §5"}, "[7]": {"system": "REC1_33 (digital address CCGA 96) mRNA, as1_casein gene", "assay": "TOGA analysis, REC1_33", "method": "as §1, §2, §3, §4, §5"}, "[8]": {"system": "REC1_34 (digital address CGGT 209) mRNA", "assay": "TOGA analysis, REC1_34", "method": "as §1, §2, §3, §4, §5"}, "[9]": {"system": "REC1_37 (digital address TTCA 264) mRNA, ribosomal protein L15", "assay": "TOGA analysis, REC1_37", "method": "as §1, §2, §3, §4, §5"}, "[10]": {"system": "REC1_3 (MspI ACGG 162) mRNA", "assay": "TOGA analysis, REC1_3", "settings": "REC1_3, ACGG 162; rabbit aorta; 14 days cholesterol + (R)-enantiomer", "method": "as §1, §2, §3\nas §4, with “These two parameters, sequence and fragment length, were used to compare the obtained PCR products to a database of known polynucleotide sequences. Since the length of the obtained PCR products includes known vector sequences at the 5′ and 3′ ends of the insert, the sequence of the insert provided in the sequence listing is shorter than the fragment length that forms part of the digital address.” left out"}, "[11]": {"system": "REC1_36 (digital address TTAG 155) mRNA", "assay": "TOGA analysis, REC1_36", "settings": "REC1_36 TTAG 155; rabbit aorta, cholesterol 14 days", "method": "as §1, §2, §3, §4, §5"}, "[12]": {"settings": "aorta at day 14 of cholesterol administration, 3 mg/kg/week for 4 weeks"}, "[13]": {"settings": "TOGA, hypercholesterolemic plus lercanidipine R (−), eight weeks, H2 (normocholesterolemic)=1.0"}, "[14]": {"settings": "aorta at day 14 of cholesterol, 3 mg/kg/week for 4 weeks"}}, "data": [{"smiles": "COC(=O)C1=C(C)NC(C)=C(C(=O)OC(C)(C)CN(C)CCC(c2ccccc2)c2ccccc2)[C@@H]1c1cccc([N+](=O)[O-])c1.Cl", "note": "(single isomer, unassigned) [(R)-lercanidipine]", "values": [{"measurement": "level of gene expression of REC1_1 (TOGA)", "setting": "[1]; aorta at day 14 of cholesterol treatment, 3 mg/kg/week for 4 weeks", "result": 872}, {"measurement": "level of gene expression of REC1_7 (TOGA)", "setting": "[2]; [12]", "result": 683}, {"measurement": "Relative Abundance Rec1_22, TOGA, D", "setting": "[3]; [13]", "result": 0.1}, {"measurement": "Relative Abundance Rec1_24, TOGA, D", "setting": "[4]; [13]", "result": 0.3}, {"measurement": "expression of REC1_28 (TOGA), in words", "setting": "[5]; aorta of hypercholesterolemic rabbits treated with (R)-lercanidipine", "result": "not down-regulated"}, {"measurement": "level of gene expression of REC1_31 (TOGA)", "setting": "[6]; [12]", "result": 28}, {"measurement": "level of gene expression of REC1_33 (TOGA)", "setting": "[7]; [12]", "result": 170}, {"measurement": "level of gene expression of REC1_34 (TOGA)", "setting": "[8]; [14]", "result": 58}, {"measurement": "level of gene expression of REC1_37 (TOGA)", "setting": "[9]; [14]", "result": 42}]}, {"smiles": "COC(=O)C1=C(C)NC(C)=C(C(=O)OC(C)(C)CN(C)CCC(c2ccccc2)c2ccccc2)[C@@H]1c1cccc([N+](=O)[O-])c1", "note": "[Lercanidipine (R)]", "values": [{"measurement": "level of gene expression (TOGA), 14 Day hypercholesterol + Lercanidipine (R)", "setting": "[1]; REC1_1, AAGC 288, rabbit aorta, 14 days cholesterol + (R)-enantiomer", "result": 872}, {"measurement": "level of gene expression (TOGA), 14 Day hypercholesterol + Lercanidipine (R)", "setting": "[10]", "result": 197}, {"measurement": "level of gene expression (TOGA), 14 Day hypercholesterol + Lercanidipine (R)", "setting": "[2]; REC1_7, CACA 282, rabbit aorta, 14 days cholesterol + (R)-enantiomer", "result": 683}, {"measurement": "level of gene expression, 14 Day hypercholesterol + Lercanidipine (R)", "setting": "[3]; REC1_22 TGGG 164, rabbit aorta, cholesterol 14 days", "result": 47}, {"measurement": "level of gene expression, 14 Day hypercholesterol + Lercanidipine (R)", "setting": "[4]; REC1_24 CCGG 232, rabbit aorta, 14 days cholesterol", "result": 139}, {"measurement": "level of gene expression, 14 Day hypercholesterol + Lercanidipine (R)", "setting": "[11]", "result": 500}, {"measurement": "level of gene expression, 14 Day hypercholesterol + Lercanidipine (R)", "setting": "[5]; REC1_28 CGGT 101, rabbit aorta, 14 days cholesterol", "result": 864}, {"measurement": "level of gene expression, 14 Day hypercholesterol + Lercanidipine (R)", "setting": "[6]; REC1_31 TGCA 210, rabbit aorta, cholesterol 14 days", "result": 28}, {"measurement": "level of gene expression, 14 Day hypercholesterol + Lercanidipine (R)", "setting": "[7]; REC1_33 CCGA 96, rabbit aorta, 14 days cholesterol", "result": 170}, {"measurement": "level of gene expression, 14 Day hypercholesterol + Lercanidipine (R)", "setting": "[8]; REC1_34 CGGT 209, rabbit aorta, 14 days cholesterol", "result": 58}, {"measurement": "level of gene expression, 14 Day hypercholesterol + Lercanidipine (R)", "setting": "[9]; REC1_37 TTCA 264, rabbit aorta, cholesterol 14 days", "result": 42}]}]}
